Laboratory results published in article PMC9833666, “Designing and identifying β-hairpin peptide macrocycles with antibiotic potential” (Science Advances, 2023).
Like-named read-outs stand apart in the source and are kept apart here. Bridge positions count the residues as written; N and C are the ends. Peptide text beside a SMILES is read from it.

What was measured:
[1] = test system: Single-donor human red blood cells; assay: Hemolysis assay; format: cell-based
Procedure: Single-donor human red blood cells (Innovative Research, no. IWB3ALS) were washed in PBS and adjusted to a concentration of 1 × 10^9 cells/ml. Each peptide was added individually to 200 μl of cells at a concentration of either 300 μg/ml (SySA library) or 128 μg/ml (SySA-5 optimization library) in a 96-well polypropylene plate (Corning, 3879). PBS alone and 1% Triton X-100 were used for background normalization and 100% hemolysis, respectively. Each reaction was set up in triplicate. Plates were incubated for 3 hours at 37°C. Following incubation, samples were centrifuged at 800g for 20 min, and 100 μl of supernatant was transferred to a flat-bottom 96-well plate (Genesse, 25-104). Percent hemolysis for each sample was determined by normalizing the absorbance at 540 nm for each sample to the average background and dividing by the average absorbance for 1% Triton X-100 (100% hemolysis). Error bars represent 1 SD of triplicate samples.

Escherichia coli W3110 = format: cell-based
Procedure: MICs were performed by a modifiedClinical and Laboratory Standards Institute) procedure. […] Separately, E. coli W3110 or A. baumannii AB5075 was grown overnight in 5 ml of standard MH at 37°C. Cells from these cultures were diluted to a concentration of 5 × 10^5 to 6 × 10^5 cells/ml in either standard MH, MHII, RPMI, or fetal bovine serum, and 90 μl was added to each well of the 96-well plate containing diluted peptide. Plates were wrapped twice in parafilm and incubated at 37°C for 18 to 24 hours. Wells were examined by eye against wells with no bacteria for signs of growth. MICs were reported as the minimum concentration with no observable growth. In cases where triplicate samples differed, the concentration supported by the median of the three replicates was reported.

[2] = SyPA peptides, human red blood cells, 3 h 37°C, relative to 1% Triton X-100, peptide concentration not stated for SyPA, n=3

Row | W3110 MIC (Escherichia coli W3110; W3110) | Compound | %Hemo [1] | further results
1 |  | CC(C)C[C@@H]1NC(=O)[C@H](CCCNC(=N)N)NC(=O)[C@H](CCCNC(=N)N)NC(=O)[C@H](CCCNC(=N)N)NC(=O)CNC(=O)[C@H](CC(N)=O)NC(=O)[C@H](CC(N)=O)NC(=O)[C@H](CC(C)C)NC(=O)[C@H](CCCNC(=N)N)NC(=O)[C@H](C(C)C)NC(=O)[C@H](CCCNC(=N)N)NC(=O)[C@H](C(C)C)NC(=O)[C@@H](N)CSSC[C@@H](C(=O)O)NC(=O)[C@H](C(C)C)NC(=O)[C@H](CCC(N)=O)NC(=O)[C@H](CC(C)C)NC(=O)[C@H](CO)NC(=O)[C@H](C(C)C)NC(=O)[C@H](CCCCN)NC1=O [SyPA-1] (H-CVRVRLNNGRRRLKVSLQVC-OH; disulfide 1-20) | 1.30% | 
2 |  | CC(C)C[C@@H]1NC(=O)CNC(=O)[C@H](CCCNC(=N)N)NC(=O)[C@H](CCCNC(=N)N)NC(=O)[C@H](CCCNC(=N)N)NC(=O)[C@H](CC(N)=O)NC(=O)[C@H](CC(N)=O)NC(=O)[C@H](CC(C)C)NC(=O)[C@H](CCCNC(=N)N)NC(=O)[C@H](C(C)C)NC(=O)[C@H]([C@@H](C)O)NC(=O)[C@H](C(C)C)NC(=O)[C@@H](N)CSSC[C@@H](C(=O)O)NC(=O)[C@H](C(C)C)NC(=O)[C@H](CCC(N)=O)NC(=O)[C@H](CC(C)C)NC(=O)[C@H](CO)NC(=O)[C@H](C(C)C)NC(=O)[C@H](CCCNC(=N)N)NC1=O [SyPA-2] (H-CVTVRLNNRRRGLRVSLQVC-OH; disulfide 1-20) | 3.75% | 
3 | >128 µg/mL | CC[C@H](C)[C@@H]1NC(=O)[C@H](CCCNC(=N)N)NC(=O)[C@H](CC(C)C)NC(=O)CNC(=O)[C@H](CO)NC(=O)[C@H](CCCNC(=N)N)NC(=O)[C@H](CCCNC(=N)N)NC(=O)[C@H](CC(N)=O)NC(=O)[C@H](CC(=O)O)NC(=O)[C@H](CC(C)C)NC(=O)[C@H](CCCNC(=N)N)NC(=O)[C@H](C(C)C)NC(=O)[C@H](CCCNC(=N)N)NC(=O)[C@H](C(C)C)NC(=O)[C@@H](N)CSSC[C@@H](C(=O)O)NC(=O)[C@H](C(C)C)NC(=O)[C@H](CCC(N)=O)NC(=O)[C@H](CC(C)C)NC(=O)[C@H](CO)NC1=O [SyPA-3] (H-CVRVRLDNRRSGLRISLQVC-OH; disulfide 1-20) | 0.39% | 
4 |  | CC[C@H](C)[C@@H]1NC(=O)[C@H](CCCNC(=N)N)NC(=O)[C@H](CC(C)C)NC(=O)[C@@H](N)CSSC[C@@H](C(=O)O)NC(=O)[C@H](C(C)C)NC(=O)[C@H](CCC(N)=O)NC(=O)[C@H](C(C)C)NC(=O)[C@H](CO)NC(=O)[C@H](C(C)C)NC(=O)[C@H](CCCNC(=N)N)NC(=O)[C@H](CC(C)C)NC(=O)CNC(=O)[C@H](CCCNC(=N)N)NC(=O)[C@H](CCCNC(=N)N)NC(=O)CNC(=O)[C@H](CC(N)=O)NC(=O)[C@H](CC(N)=O)NC(=O)[C@H](CC(C)C)NC(=O)[C@H](CCCNC(=N)N)NC1=O [SyPA-4] (H-CLRIRLNNGRRGLRVSVQVC-OH; disulfide 1-20) | 1.59% | 
5 |  | CC[C@H](C)[C@@H]1NC(=O)[C@H](CCCNC(=N)N)NC(=O)[C@H](CC(C)C)NC(=O)[C@@H](N)CSSC[C@@H](C(=O)O)NC(=O)[C@H](C(C)C)NC(=O)[C@H](CCC(N)=O)NC(=O)[C@H](CC(C)C)NC(=O)[C@H](CO)NC(=O)[C@H](C(C)C)NC(=O)[C@H](CCCNC(=N)N)NC(=O)[C@H](CC(C)C)NC(=O)CNC(=O)[C@H](CCCNC(=N)N)NC(=O)[C@H](CCCNC(=N)N)NC(=O)[C@H](CCCNC(=N)N)NC(=O)[C@H](CC(=O)O)NC(=O)[C@H](CC(N)=O)NC(=O)[C@H](CC(C)C)NC(=O)[C@H](CCCNC(=N)N)NC1=O [SyPA-5] (H-CLRIRLNDRRRGLRVSLQVC-OH; disulfide 1-20) | 1.89% | 
6 |  | CC[C@H](C)[C@@H]1NC(=O)[C@H](CCCNC(=N)N)NC(=O)[C@H](C(C)C)NC(=O)[C@@H](N)CSSC[C@@H](C(=O)O)NC(=O)[C@H](C(C)C)NC(=O)[C@H](CCC(N)=O)NC(=O)[C@H](C(C)C)NC(=O)[C@H](CO)NC(=O)[C@H](C(C)C)NC(=O)[C@H](CCCNC(=N)N)NC(=O)[C@H](C(C)C)NC(=O)[C@H](CCCNC(=N)N)NC(=O)[C@H](CCCNC(=N)N)NC(=O)[C@H](CCCNC(=N)N)NC(=O)[C@H](CCCNC(=N)N)NC(=O)[C@H](CC(N)=O)NC(=O)[C@H](CC(N)=O)NC(=O)[C@H](CC(C)C)NC(=O)[C@H](CCCNC(=N)N)NC1=O [SyPA-6] (H-CVRIRLNNRRRRVRVSVQVC-OH; disulfide 1-20) |  | W3110 MIC (Escherichia coli W3110; SyPA peptides, MH, replicate 1): 32 µg/mL; W3110 MIC (Escherichia coli W3110; SyPA peptides, MH, replicate 2): 32 µg/mL; W3110 MIC (Escherichia coli W3110; SyPA peptides, MH, replicate 3): 32 µg/mL; %Hemo [1, 2]: 0.90%
7 | >128 µg/mL | CC[C@H](C)[C@@H]1NC(=O)[C@H](CC(N)=O)NC(=O)[C@H](C(C)C)NC(=O)[C@H](CCCNC(=N)N)NC(=O)[C@H](C(C)C)NC(=O)[C@H](CCCNC(=N)N)NC(=O)[C@@H](N)CSSC[C@@H](C(=O)O)NC(=O)[C@H](CCC(N)=O)NC(=O)[C@H](CC(C)C)NC(=O)[C@H](CCC(N)=O)NC(=O)[C@H](CC(C)C)NC(=O)[C@H](CCCNC(=N)N)NC(=O)[C@H](CC(C)C)NC(=O)[C@H]([C@@H](C)O)NC(=O)[C@H](CCCNC(=N)N)NC(=O)[C@H](CO)NC(=O)[C@H](CCCNC(=N)N)NC(=O)[C@H](CC(N)=O)NC(=O)[C@H](CC(=O)O)NC1=O [SyPA-7] (H-CRVRVNIDNRSRTLRLQLQC-OH; disulfide 1-20) | 1.48% | 
8 |  | CC(C)C[C@@H]1NC(=O)[C@H](CCCNC(=N)N)NC(=O)CNC(=O)[C@H](CCCNC(=N)N)NC(=O)[C@H](CCCNC(=N)N)NC(=O)[C@H](CC(N)=O)NC(=O)[C@H](CC(N)=O)NC(=O)[C@H](CC(C)C)NC(=O)[C@H](CCCNC(=N)N)NC(=O)[C@H](C(C)C)NC(=O)[C@H](CCCNC(=N)N)NC(=O)[C@H](CC(C)C)NC(=O)[C@@H](N)CSSC[C@@H](C(=O)O)NC(=O)[C@H](C(C)C)NC(=O)[C@H](CCC(N)=O)NC(=O)[C@H](CC(C)C)NC(=O)[C@H](CO)NC(=O)[C@H](C(C)C)NC(=O)[C@H](CCCNC(=N)N)NC1=O [SyPA-8] (H-CLRVRLNNRRGRLRVSLQVC-OH; disulfide 1-20) | 2.87% | 
9 | 64 µg/mL | CC[C@H](C)[C@@H]1NC(=O)[C@H](CCCNC(=N)N)NC(=O)[C@H](CC(C)C)NC(=O)[C@H](CCCNC(=N)N)NC(=O)CNC(=O)[C@H](CCCNC(=N)N)NC(=O)[C@H](CCCNC(=N)N)NC(=O)[C@H](CC(=O)O)NC(=O)[C@H](CC(=O)O)NC(=O)[C@H](CC(C)C)NC(=O)[C@H](CCCNC(=N)N)NC(=O)[C@H](C(C)C)NC(=O)[C@H](CCCNC(=N)N)NC(=O)[C@H](CC(C)C)NC(=O)[C@@H](N)CSSC[C@@H](C(=O)O)NC(=O)[C@H](C(C)C)NC(=O)[C@H](CCC(N)=O)NC(=O)[C@H](CC(C)C)NC(=O)[C@H](CO)NC1=O [SyPA-9] (H-CLRVRLDDRRGRLRISLQVC-OH; disulfide 1-20) | 11.36% | 
10 |  | CC(C)C[C@@H]1NC(=O)[C@H](CCCNC(=N)N)NC(=O)[C@H](C(C)C)NC(=O)[C@H](CCCNC(=N)N)NC(=O)[C@H](C(C)C)NC(=O)[C@@H](N)CSSC[C@@H](C(=O)O)NC(=O)[C@H](C(C)C)NC(=O)[C@H](CCC(N)=O)NC(=O)[C@H](C(C)C)NC(=O)[C@H](CO)NC(=O)[C@H](C(C)C)NC(=O)[C@H](CCCNC(=N)N)NC(=O)[C@H](C(C)C)NC(=O)[C@H](CCCNC(=N)N)NC(=O)[C@H](CCCNC(=N)N)NC(=O)[C@H](CCCNC(=N)N)NC(=O)[C@H](CCCNC(=N)N)NC(=O)[C@H](CC(N)=O)NC(=O)[C@H](CC(N)=O)NC1=O [SyPA-10] (H-CVRVRLNNRRRRVRVSVQVC-OH; disulfide 1-20) |  | W3110 MIC (Escherichia coli W3110; SyPA peptides, MH, replicate 2): 16 µg/mL; W3110 MIC (Escherichia coli W3110; SyPA peptides, MH, replicate 3): 16 µg/mL; %Hemo [1, 2]: 1.99%
